Assay results from patent US20170304169A1, “USE OF A COSMETIC COMPOSITION COMPRISING 10-HYDROXYSTEARIC ACID” (DSM IP ASSETS B.V., priority 2014, published 2017).

Columns and labels:
Type in all cases: cell-based
Collagen 3 = Collagen 3 immunostaining in human skin organ culture; details: topical, human skin explants
Method: (§1) Human skin from abdominal plastic surgery has been used (donor[…]). Informed consent has been obtained. The skin phototype has been assayed with a spectro-colorimeter and classified as “BROWN” (ITA° angle=9.3°) (pigmentation scale: very light<light<intermediate<tanned<brown<dark) (Del Bino et al., Pigment Cell Research, 19. 2006).
(§2) The skin samples have been cut in pieces of approximately 8×3 mm (ø×thickness) and cultured up to day 6. Fourteen skin specimens have been used for each treatment. Two skin samples have been cultured to perform the skin viability test, six to perform the skin pigmentation and the collagen analyses and six for the SBC test.
Skin samples have been cultured in an air-liquid interface in a perforated ring of stainless steel in contact with culture medium (modified Williams' E medium) up to day 6. […]
Skin sections have been immune-stained with the selected antibody. The amount of the antigen present in each slide has been evaluated by estimating the intensity and the distribution of the red within a selected area of the dermis using Image J (NIH-USA). […]
All quantitative data have been summarized in terms of the mean score for each treatment. […] Differences between groups were evaluated by One-way anova with permutation test followed by pairwise post-hoc comparisons—Dunnett's permutation test and pairwise post hoc comparisons—Tukey's HSD permutation tests.

p53 = p53 detection and quantification in UVB-irradiated human skin organ culture; details: 0.1 mg/ml, UVB (1 J/cm2), human skin explants
Method: Cell culture was performed as in example 12 above.
Skin sections have been stained with the antibody for p53 (Abcam, #ab7757). The p53 positive cells have been counted and the obtained value have been divided upon the area covered by epidermis. Two slides of each skin sample have been processed by image acquisition and related analysis (i.e. 12 images for each test treatment).
All quantitative data have been summarized in terms of the mean score for each treatment. The measures of variation as standard deviation and standard error of mean (SEM) have been applied to the original scores. Differences between groups were evaluated by One-way anova with permutation test followed by pairwise post-hoc comparisons—Dunnett's permutation test and pairwise post hoc comparisons—Tukey's HSD permutation tests.

[1] = tested on: Human skin from abdominal plastic surgery; assay: Skin viability (MTT) in human skin organ culture; details: topical, 0.1, 1 and 10 mg/ml, day 6, MTT
Method: as §1, §2
Skin samples have been cultured in an air-liquid interface in a perforated ring of stainless steel in contact with culture medium (modified Williams' E medium) up to day 6. The culture medium has been renewed every three days (i.e. day 0-3).
Both the test samples and the controls have been applied topically and renewed daily. […]
After 6 days of incubation two skin biopsies have been weighed and, in case, reduced in the dermal portion, in order to have approximately the same weight for all of them. […] Subsequently the blue crystals have been solubilized and the color intensity, that is directly proportional to skin vitality, has been measured with a plate reader at a wavelength of 570 nm. […]

MMP-1 = MMP-1 expression by RT-qPCR in UVB-irradiated human skin organ culture; details: UVB (1 J/cm2), human skin explants
Method: Human skin from abdominal plastic surgery has been used (donor). Informed consent has been obtained. The skin phototype has been assayed with a spectro-colorimeter and classified as “LIGHT” (ITA° angle=50°) (pigmentation scale: very light<light<intermediate<tanned<brown<dark) (Del Bino et al., Pigment Cell Research, 19. 2006).
The skin samples have been cut in pieces of 8×3 mm (ø×thickness) and cultured up to day 2. Two skin samples for each treatment have been cultured to perform the MMP-1 analysis.
Skin samples have been cultured in an air-liquid interface in a perforated ring of stainless steel in contact with culture medium (modified Williams' E medium) up to day 2. The culture medium has been renewed every three days (i.e. day 0-3).
Both the test samples and the controls have been applied topically, renewed 1 hour prior of UVB irradiation. Right before the irradiation the treatments have been gently yet carefully removed from the skin samples. […]
For RT-qPCR analysis, total RNA have been extracted from full thickness skin using RNAeasy mini kit for fibrous tissues (Qiagen) following manufacturer's instructions. After quantification, 400 ng of total RNA have been retro-transcribed using random hexamers and Superscript III (Invitrogen). […]

Human dermal fibroblasts = assay: Cytotoxicity measurement, MTT assay in human dermal fibroblasts; details: normal human fibroblasts, 48 h
Method: (§3) Human dermal fibroblasts isolated from a biopsy of a donor (Fb-D) were maintained in Dulbecco's modified Eagle's medium high glucose (DMEM) containing 10% fetal calf serum (FCS) and 1% penicillin/streptomycin (P/S). Cells were cultivated at 37° C. in a humidified 5% CO2-air atmosphere.
Cytotoxicity was measured using the MTT assay according to the manufacturer's instructions. In brief: Fibroblasts (4000 cells/well, in 96-well cell culture plates from Nunc) were pre-cultured in DMEM 10% FCS 1% Penicillin/Streptomycin (P/S) for 24 h before being starved in DMEM low glucose containing 0.2% FCS and 1% P/S for 2.5 days. Starvation medium was then replaced and solubilized compounds were added and incubated for 48 h. Subsequently 10 μl MTT labelling reagent were added to each well (final concentration 0.5 mg/ml) and the microtiter plate was incubated for 4 h (37° C., 5% CO2). After addition of 100 μl solubilization solution into each well, the plate was allowed to stand overnight in the incubator (37° C., 5% CO2). The absorbance (OD) was measured in an absorbance plate reader at 550 nm.
Normal human fibroblasts treated with compounds for 48 h were assessed for viability using the MTT assay. Control values without compound were set to 100% viability.

Type III collagen = assay: Collagen 3 synthesis in normal human fibroblasts (immunofluorescence, ArrayScan); details: 48 h, human dermal fibroblasts
Method: Human dermal fibroblasts obtained from adult skin (donor) were seeded into 96-well plates (4000 cells/well) and cultured in Dulbecco's Modified Eagle Medium (DMEM) with 10% fetal calf serum (FCS) and 1% Penicillin/Streptomycin (Life Technologies, Lucerne, Switzerland) at 37° C. with 5% CO2 for 24 h. After medium was changed with DMEM Low Glucose containing 0.2% FCS and 1% Pen/Strep, the cells were incubated for another 2.5 days. Then, starvation medium was replaced with fresh medium containing the test compounds. After 48 h incubation the cells were fixed in Dulbecco's Phosphate-Buffered Saline (DPBS) containing 4% formaldehyde (Life Technologies, Lucerne, Switzerland) for 15 min and permeabilized with 0.1% Triton-X100 in DPBS for 90 sec.
Collagen 3 was detected using rabbit anti-human Type III collagen (BioTrend, Cologne, Germany), followed by the AlexaFluor 488 conjugated secondary IgG antibody (goat anti-rabbit IgG, Life Technologies, Lucerne, Switzerland). […]
Stained cells were analysed with the ArrayScan VTI HCS Reader (Thermo Fisher Scientific, Waltham, Mass., USA). The total of 49 pictures per well was acquired with a 10× objective and images were subsequently analysed using the “CellHealthProfiling” bioapplication v4. Collagen was measured in a defined region around the nucleus and the fluorescence intensity values were normalized to the cell count. […]

Collagen 1 = Collagen 1 synthesis in normal human fibroblasts (immunofluorescence, high content imaging); details: 48 h, primary human fibroblasts; for collagen 1 induction (in words): increasing amounts of compound
Method: as §3
Human dermal fibroblasts were pre-cultured in DMEM 10% FCS 1% P/S for 24 h before being starved in DMEM low glucose containing 0.2% FCS and 1% P/S for 2.5 days. Starvation medium was then replaced and solubilized compounds were added and incubated for 48 h. After compound incubation cells were fixed in DPBS containing 4% formaldehyde for 15 min and permeabilized with DPBS 0.1% Triton-X100 for 90 sec. Collagen 1 was detected using mouse anti human collagen 1 antibody and the first antibody was detected with AlexaFluor 488 conjugated goat anti-mouse IgG. We counterstained nuclei with DAPI. Stained cells were analysed with the Thermo Fisher High Content Imaging System. There were acquired 49 pictures per well with a 10× objective and images were subsequently analysed using the “CellHealthProfiling” bioapplication v4. Collagen 1 was measured in a defined region around the nucleus and the fluorescence intensity values were normalized to cell count.
Following a pre-culture period, primary human fibroblasts were incubated for 48 h with increasing amounts of compound. Cells were then fixed and collagen 1 protein level was assessed by immunofluorescence. The experiment was repeated twice. After starvation fibroblasts were incubated for 48 h with increasing amounts of compound. TGF-β1 serves as positive control. Values given are fold collagen 1 induction compared with control cells. […] Collagen 1 induction reached 2.2 fold induction when 10-HSA was used at 5 μM.

SMILES	increase in expression of collagen 3 (Collagen 3; 0.1 mg/ml)	increase in expression of collagen 3 (Collagen 3; 1 mg/ml)	p53 UV-induced stimulation vs DMSO UV (p53) [%]	skin viability [1]	MMP-1 expression in comparison to vehicle (DMSO), in words (MMP-1)	cytotoxic effect (reduction of cell survival to less than 80% compared to control cells) (Human dermal fibroblasts)	increase in type III collagen compared with medium treated cells (Type III collagen; 5 μM) [%]	type III collagen synthesis (in words) (Type III collagen; p<0.01 relative to medium control)	fold collagen 1 induction compared with control cells (Collagen 1; 5 μM) [fold]	collagen 1 induction (in words) (Collagen 1)
CCCCCCCCC(O)CCCCCCCCC(=O)O (centres unmarked) [10-HSA, 10-hydroxystearic acid]	+49%	+57%	−46	did not affect skin viability	significantly and considerably reduced the expression of MMP-1	did not show any cytotoxic effect	244	significantly induced type III collagen synthesis in a dose-dependent manner	2.2	dose dependent induction of collagen 1
CCCCCCCCCCCCCCCCCC(=O)O [stearic acid]	–	–	–	–	–	–	–	–	–	did not induced collagen 1 expression
